# Values of other authors as cited in patent publication US8415449B2, “Bioresorbable polymers synthesized from monomer analogs of natural metabolites” (Rutgers, The State University of New Jersey, priority 2009, dated 2013).
# Settings: as part of the clinical evaluation of the sebacic acid anhydride copolymer
smiles,measurement,value
O=C(O)CCCCCCCCC(=O)O [sebacic acid],toxicity finding,nontoxic
